Source: US8703697B2, “Method for treating early severe diffuse acute respiratory distress syndrome” (priority 2011, dated 2014)

Experiments:
severe diffuse ARDS = experiment: Case observation: ARDS patient sedated with clonidine under spontaneous ventilation-pressure support and high PEEP; format: in vivo, human
sedation = conditions: continuous infusion for sedation; cited from earlier work

Question: Which “P/F (PaO2/FiO2)” value (severe diffuse ARDS; human, in vivo) does the source give for `Clc1cccc(Cl)c1N=C1NCCN1` [clonidine] here?
Answer: 262

Question: And the Ramsay score (severe diffuse ARDS; under clonidine 1 μg·kg-1·h-1, progressively lowered from Ramsay 5-6, patient communicated with family on D5)?
Answer: 2-3

Question: For `Cc1cccc([C@H](C)c2cnc[nH]2)c1C` [dexmedetomidine], which “dosage at which ceiling effect is observed” value (sedation) is on record?
Answer: 1.5 µg/kg/h

Question: Which “Superior vena cava O2 saturation” value (severe diffuse ARDS; at all intervals, dobutamine D3 to D6, 2 then 1 μg·kg-1·min-1) does the source give for `CC(CCc1ccc(O)cc1)NCCc1ccc(O)c(O)c1` (centres unmarked) [dobutamine] here?
Answer: > 70%

Question: Which mean arterial pressure (severe diffuse ARDS; noradrenaline 0.45 μg·kg-1·min-1 lowered to 0.01 μg·kg-1·min-1, forced diuresis) does the source give for `NC[C@H](O)c1ccc(O)c(O)c1` [noradrenaline] here?
Answer: > 100 mm Hg
